Assay results from patent US5504097A, “N-hydroxyureas as 5-lipoxygenase inhibitors and inhibitors of oxidative modification of low density lipoprotein” (American Home Products Corporation, priority 1995, dated 1996).
Counter-ions that a name gives are not always drawn.

Assays:
[1] = tested on: LT-dependent bronchoconstriction; assay: Inhibition of Bronchoconstriction in Guinea Pigs Induced by Exogenously Administered Antigen (ovalbumin); format: in vivo, Male guinea pigs; conditions: Cavia porcellus, iv, 5 min; 10 mg/kg
Procedure: 4. Inhibition of Brochoconstriction in Guinea Pigs Induced by Exogenously Administered Antigen
Male guinea pigs (Charles River, Wilmington, Mass.) were sensitized 3-4 weeks prior to antigen challenge by administration of 2 i.m. injections of ovalbumin, 1 into each hind limb (35 mg total). Sensitized animals (500-600 g) were fasted overnight prior to experimentation. Conscious animals were then dosed p.o. with drug or vehicle alone (0.5% Tween 80 in H2 O) at the indicated times prior to antigen challenge, or anesthetized animals were dosed i.v. with drug or vehicle alone (DMSO) 5 min prior to antigen challenge. Animals were anesthetized by urethane (2.8 g/kg i.p.). A carotid artery and jugular vein were cannulated to allow for the monitoring of blood pressure and the administration of drugs, respectively. The trachea was then cannulated and connected to a Harvard Apparatus rodent ventilator (S. Natick, Mass). Spontaneous respiration was abolished by the administration of succinylcholine (2.5 mg/kg i.v.). The animals were then ventilated with room air at a rate of 65 breaths per min. Airway inflation pressure was measured using a Statham pressure transducer (Gould Instruments, Cleveland, Ohio) connected to the tracheal cannula via a side-arm and recorded on a Grass Instruments recorder (Quincy, Mass). The tidal volume (approximately 10 cc/kg) was adjusted to give a baseline inflation pressure of 8-10 cm H2 O at end inspiration. Animals were then allowed 20 min to stabilize.
Following the stabilization period, animals were given i.v. injections of pyrilamine (5 mg/kg), propranolol (0.1 mg/kg) and indomethacin (10 mg/kg) at 15, 10 and 5 min, respectively, prior to antigen challenge. This pretreatment results in an LT-dependent bronchoconstriction following antigen challenge, which was accomplished by i.v. administration of ovalbumin (10 mg/kg). Only one bronchoconstriction per animal was induced. End-inspiratory inflation pressure (in cm H2 O over baseline) was measured at 5 min post-antigen challenge. A mean value and standard error for the % inhibition of control bronchoconstriction in each drug-treated group was then calculated.

5-Lipoxygenase = biological target: T1, 5-Lipoxygenase (Homo sapiens, UniProt P09917); assay: Inhibition of 5-Lipoxygenase in Human Whole Blood (LTB4, calcium ionophore A23187); format: cell-based
T1 construct: from tissue; host or cells: whole blood of male human donors (endogenous enzyme of the leukocytes)
T1 sequence (P09917 1-674): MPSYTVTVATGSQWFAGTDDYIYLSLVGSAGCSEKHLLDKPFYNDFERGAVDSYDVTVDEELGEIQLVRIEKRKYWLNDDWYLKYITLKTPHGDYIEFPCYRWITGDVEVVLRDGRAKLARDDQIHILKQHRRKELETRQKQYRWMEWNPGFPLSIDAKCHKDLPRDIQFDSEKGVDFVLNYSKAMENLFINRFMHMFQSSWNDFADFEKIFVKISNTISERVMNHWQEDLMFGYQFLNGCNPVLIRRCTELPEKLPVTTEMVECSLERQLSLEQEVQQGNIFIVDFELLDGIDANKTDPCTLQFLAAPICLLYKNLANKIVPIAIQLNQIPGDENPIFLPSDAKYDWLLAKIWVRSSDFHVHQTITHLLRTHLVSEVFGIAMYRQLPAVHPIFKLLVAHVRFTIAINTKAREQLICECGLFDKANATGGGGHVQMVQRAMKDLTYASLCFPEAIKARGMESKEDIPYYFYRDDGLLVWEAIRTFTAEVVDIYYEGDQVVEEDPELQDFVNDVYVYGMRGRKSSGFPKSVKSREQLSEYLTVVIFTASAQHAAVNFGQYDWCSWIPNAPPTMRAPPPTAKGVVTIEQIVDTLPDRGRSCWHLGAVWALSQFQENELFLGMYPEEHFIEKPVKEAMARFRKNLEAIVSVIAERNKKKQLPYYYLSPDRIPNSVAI
Procedure: 1. Inhibition of 5-Lipoxygenase in Human Whole Blood
Blood is obtained in 50-100 ml quantities from male donors. White blood cell counts and differentials are made. Two ml of blood are placed in a 15 ml polypropylene test tube. Test compounds are solubilized in dimethylsulfoxide and diluted in 1:10 in 10% bovine serum albumin in phosphate buffered saline, pH 7.4 resulting in a final dimethylsulfoxide concentration of 0.1% in the blood. Then, solutions of test compounds are added to the blood in a shaking water bath at 37° C. for 10 minutes prior to the addition of 30 μM calcium ionophore (A23187, Sigma). After ionophore administration, whole blood samples are mixed and incubated for 20 minutes at 37° C. in a shaking water bath. Incubation is terminated by placing samples in an ice bath and immediately adding ethylene glycol-bis-(β-aminoethyl ether)-N, N,N',N'-tetraacetic acid (10 mM). Samples are mixed and centrifuged at 1200× g for 15 minutes at 4° C. Preparation of samples for evaluation by RIA or ELISA is carried out by the following protocol. Plasma is removed from sample tubes, placed in 15 ml polypropylene test tubes containing 8 ml methanol, and then vortexed to precipitate protein. Samples are stored at -70° C. overnight. The next day, samples are centrifuged at 200× g for 15 minutes at 4° C. to pellet the precipitate. Samples are dried in a Savant SpeedVac Concentrator, Model SVC 200H, reconstituted to original volume with ice cold RIA or ELISA buffer, and stored at -70° C. until assayed. The assay for eicosanoids (LTB4, T×B2, and PGE2) is performed as described by the manufacturer of the ^3 H!-RIA kit or ELISA kit (LTB4 -Amersham, T×B2 and PGE2 -Caymen Chemical).
The total eicosanoid level in 2 ml of blood is calculated and reported as ng/10^6 neutrophils. Significance is determined by a one-way analysis of variance with least significant difference (LSD) comparisons to control (p≤0.05) and IC50 's (μM) are determined by regression analysis (Finney, 1978). Drug effects are expressed as percent change from control values.

Lipoxygenase = assay: Ex-Vivo Measurement of Lipoxygenase Inhibition in Orally Dosed Rats (LTB4 in A23187-stimulated blood); parameters: species or system Male Sprague Dawley rats; conditions: 10 mg/kg, p.o.; pretreatment period 6 hr
Procedure: 2. Ex-Vivo Measurement of Lipoxygenase Inhibition in Orally Dosed Rats
After an interval of 3 or 6 hours, the rats were anesthetized with metofane (n=4/group) and blood collected in heparinized tubes. White blood cell counts and differentials were made. One ml of blood from each animal was placed in a 5 ml plastic tube in a shaker bath at 37° C. A23187 at a final concentration of 10 μM was added to the blood and the blood vortexed and incubated for 15 min at 37° C. with gentle shaking. Incubation was terminated by vortexing sample and centrifuging immediately at 1200× G for 15 min at 4° C. The plasma was transferred to 15 ml plastic tubes each containing 8 ml of methanol to precipitate protein followed by vortexing. The samples were stored at -70° C. overnight and the next day the samples were centrifuged at 800× G for 15 min to pellet the precipitate. The samples were dried in a Savant SpeedVac Concentrator Model SVC 200H and reconstituted to the original volume with cold RIA or ELISA buffer. The reconstituted samples were stored at -70° C. until assayed. The assay for LTB4 was performed according to the directions of the ^3 H!RIA kit or ELISA kit (Seragen). The total metabolite level in 1 ml of blood is calculated and reported as ng/10^6 neutrophils. Significance is determined by a one-way analysis of variance with LSD comparisons to control (p≤0.05).

inhibition at 1 µM (5-Lipoxygenase) [%]	inhibition at 10 µM (5-Lipoxygenase; 10 μM) [%]	Compound	inhibition in vivo at 10 mg/kg [1] [%]	further results
56		NC(=O)N(O)Cc1ccc(OCc2csc(-c3ccc(C(F)(F)F)cc3)n2)cc1 [Example 12, 1-Hydroxy-1-4-2-(4-trifluoromethyl-phenyl)-thiazol-4-yl-methoxy!-benzyl!urea]	30	
57		NC(=S)N(O)Cc1ccc(OCc2csc(-c3ccc(Cl)cc3)n2)cc1 [Example 15, 1-Hydroxy-1-4-2-(4-chloro-phenyl)-thiazol-4-ylmethoxy!-benzyl!-thiourea]	21	
56		COc1ccc(-c2nc(COc3ccc(CN(O)C(N)=O)cc3)cs2)cc1 [Example 17, 1-Hydroxy-1-4-2-(4-methoxy-phenyl)-thiazol-4-ylmethoxy!-benzyl!-urea]	50	% Inhibition of LTB4 (Lipoxygenase): 69%
	94	NNC(=O)N(O)Cc1ccc(OCc2csc(-c3ccccc3)n2)cc1 [Example 21, 4-Hydroxy-4-4-(2-phenyl-thiazol-4-ylmethoxy)-benzyl!-semicarbazide]		

The remaining lines, values behind:

Compound	inhibition at 1 µM (5-Lipoxygenase) [%]	inhibition at 10 µM (5-Lipoxygenase; 10 μM) [%]	inhibition in vivo at 10 mg/kg [1] [%]	further results
Cc1oc(-c2ccc(OCC(F)(F)F)cc2)nc1COc1ccc(CN(O)C(N)=O)cc1 [Example 7, 1-Hydroxy-1-4-5-methyl-2-(4-trifluoroethoxy-phenyl)-oxazol-4-ylmethoxy!-benzyl!-urea]	74		24	
Cc1oc(-c2ccccc2)nc1COc1ccc(C(C)N(O)C(N)=O)cc1 (stereo not shown) [Example 8, 1-Hydroxy-1-1- -4(5-methyl-2-phenyl-oxazol-4-ylmethoxy)-phenyl!-ethyl!-urea]		57		
NC(=O)N(O)Cc1ccc(OCc2coc(-c3ccc(C(F)(F)F)cc3)n2)cc1 [Example 11, 1-Hydroxy-1-4-2-(4-trifluoromethyl-phenyl)-oxazol-4-ylmethoxy!-benzyl!-urea]	32			% Inhibition of LTB4 (Lipoxygenase): 68%
O=C(Nc1ccc(F)cc1)N(O)Cc1ccc(OCc2csc(-c3ccc(C(F)(F)F)cc3)n2)cc1 [Example 13, 3-(4-Fluoro-phenyl)-1-hydroxy-1-4-2-(4-trifluoromethyl-phenyl)-thiazol-4-ylmethoxy!-benzyl!-urea]	38			
CCCCCCNC(=O)N(O)Cc1ccc(OCc2csc(-c3ccc(Cl)cc3)n2)cc1 [Example 16, 1-4-2-(4-chloro-phenyl)-thiazol-4-ylmethoxy!-benzyl!-3-hexyl-1-hydroxy-urea]		36		
Cc1oc(-c2ccccc2)nc1COc1ccc(C(O)CN(O)C(N)=O)cc1 (stereo not shown) [Example 18, 1-Hydroxy-1-2-hydroxy-2-4-(5-methyl-2-phenyl-oxazol-4-ylmethoxy)-phenyl!-ethyl!-urea]		86		
Cc1oc(-c2ccc(C(F)(F)F)cc2)nc1COc1ccc(CN(O)C(=O)NN)cc1 [Example 19, 4-Hydroxy-4-4-5-methyl-2-(4-trifluoromethyl-phenyl)-oxazol-4-ylmethoxy!-benzyl!-semicarbazide]		50		
CC(C)=NNC(=O)N(O)Cc1ccc(OCc2nc(-c3ccc(C(F)(F)F)cc3)oc2C)cc1 [Example 20, 1-Isopropylidine-4-hydroxy-4-4-5-methyl-2-(4-trifluoromethylphenyl)oxazol-4-ylmethoxy!-benzyl!-semicarbazone]		78		
NNC(=O)N(O)Cc1ccc(OCc2csc(-c3ccccc3)n2)cc1 [Example 22, 4-Hydroxy-4-4-(2-phenyl-thiazol-4-ylmethoxy)-benzyl!-semicarbazide hydrochloride]				% Inhibition of LTB4 (5-Lipoxygenase; 10 μM, hydrochloride): 80%
